Active and inactive are the calls of the source. The rule behind the calls is not given here.

Drawing on ChEMBL document CHEMBL1777769, “Synthesis and characterisation of a novel tubulin-directed DO3A-colchicine conjugate with potential theranostic features” (Bioorg Med Chem Lett, 2011), this text covers Activity for 2 molecules.

What all share (assay type): functional, cell-based
Assay [1] deals with OVCAR-3. The assay can be described thus: Cytotoxicity against human OVCAR3 cells assessed as cell death after 24 hrs by trypan blue exclusion assay.
Assay [2] has as its system OVCAR-3. The assay can be described thus: Cytotoxicity against human OVCAR3 cells assessed as change in cell shape after 24 hrs by trypan blue exclusion assay.
For assay [3], the system named is OVCAR-3. The assay can be described thus: Cytotoxicity against human OVCAR3 cells assessed as reduction in viable cells after 24 hrs by trypan blue exclusion assay.

With `COc1cc2c(c(OC)c1OC)-c1ccc(OC)c(=O)cc1[C@@H](NC(=O)CN1CCN(CC(=O)O)CCN(CC(=O)O)CCN(CC(=O)O)CC1)CC2`, the result with OVCAR-3 [1] and with OVCAR-3 [2] was Active.

As for `COc1cc2c(c(OC)c1OC)-c1ccc(OC)c(=O)cc1[C@@H](NC(C)=O)CC2`, the result in the assay with OVCAR-3 [1], in the assay on OVCAR-3 [3] and in the assay on OVCAR-3 [2] was Active.
